Ends that are not written are not given here.
molecular target: Human DDB1 (Homo sapiens (Human), UniProt Q16531); experiment: Surface plasmon resonance (SPR) binding assay to immobilized His-DDB1; conditions: not given
Description: The binding affinities of heterobifunctional compounds to DDB1 were determined by SPR assay. Purified His-DDB1 proteins were immobilized on a CM5 sensor chip, and a dose range of compound solutions were injected in multi-cycle kinetic format. Data were fit to steady state model and gave equivalent dissociation constants (KD).
Protein Expression and Purification. Human DDB1 (UniPro: Q16531) coding sequences were cloned into pFastBacHTB vector and were expressed in High5 cells using Bac-to-Bac baculovirus expression system (Thermo Fisher Scientific). […] DDB1 proteins were obtained from supernatant of cell lysates and purified through sequential application of Ni affinity (Ni-NTA column. Bio-Rad), and size-exclusion (Superdex 200 16/600GL column, GE Healthcare) column chromatography.
Surface plasmon resonance (SPR) binding assay. All SPR studies were performed on a Biacore X100 plus or T200 instrument (GE Healthcare). Immobilization of purified His-DDB1 was carried out at 25° C. using a CM5 sensor chip. The surface was pre-equilibrated in HBS-EP running buffer (10 mM HEPES, pH7.4, 150 mM NaCl, 3 mM EDTA, 0.05% P20), then activated with EDC/NHS. His-DDB1 proteins were immobilized by amine coupling to a density of 11,000-13,000 resonance units (RUs) on flow cell FC2, whereas flow cell FC1 was used as reference. Both DDB1 immobilized and reference surfaces were deactivated with 1M ethanolamine.
All interaction experiments were performed at 25° C. […] Compound Solutions were injected individually in multi-cycle kinetic format without regeneration (flow rate […], association time 120 s, dissociation time 120 s). Sensorgrams from reference surfaces and blank injections were subtracted from the raw data (double-referencing) and the data was solvent-corrected prior to analysis. All data were fit to steady state affinity model using Biacore Evaluation Software and gave equivalent dissociation constants (KD).

Sequence of Human DDB1 (Q16531 whole entry): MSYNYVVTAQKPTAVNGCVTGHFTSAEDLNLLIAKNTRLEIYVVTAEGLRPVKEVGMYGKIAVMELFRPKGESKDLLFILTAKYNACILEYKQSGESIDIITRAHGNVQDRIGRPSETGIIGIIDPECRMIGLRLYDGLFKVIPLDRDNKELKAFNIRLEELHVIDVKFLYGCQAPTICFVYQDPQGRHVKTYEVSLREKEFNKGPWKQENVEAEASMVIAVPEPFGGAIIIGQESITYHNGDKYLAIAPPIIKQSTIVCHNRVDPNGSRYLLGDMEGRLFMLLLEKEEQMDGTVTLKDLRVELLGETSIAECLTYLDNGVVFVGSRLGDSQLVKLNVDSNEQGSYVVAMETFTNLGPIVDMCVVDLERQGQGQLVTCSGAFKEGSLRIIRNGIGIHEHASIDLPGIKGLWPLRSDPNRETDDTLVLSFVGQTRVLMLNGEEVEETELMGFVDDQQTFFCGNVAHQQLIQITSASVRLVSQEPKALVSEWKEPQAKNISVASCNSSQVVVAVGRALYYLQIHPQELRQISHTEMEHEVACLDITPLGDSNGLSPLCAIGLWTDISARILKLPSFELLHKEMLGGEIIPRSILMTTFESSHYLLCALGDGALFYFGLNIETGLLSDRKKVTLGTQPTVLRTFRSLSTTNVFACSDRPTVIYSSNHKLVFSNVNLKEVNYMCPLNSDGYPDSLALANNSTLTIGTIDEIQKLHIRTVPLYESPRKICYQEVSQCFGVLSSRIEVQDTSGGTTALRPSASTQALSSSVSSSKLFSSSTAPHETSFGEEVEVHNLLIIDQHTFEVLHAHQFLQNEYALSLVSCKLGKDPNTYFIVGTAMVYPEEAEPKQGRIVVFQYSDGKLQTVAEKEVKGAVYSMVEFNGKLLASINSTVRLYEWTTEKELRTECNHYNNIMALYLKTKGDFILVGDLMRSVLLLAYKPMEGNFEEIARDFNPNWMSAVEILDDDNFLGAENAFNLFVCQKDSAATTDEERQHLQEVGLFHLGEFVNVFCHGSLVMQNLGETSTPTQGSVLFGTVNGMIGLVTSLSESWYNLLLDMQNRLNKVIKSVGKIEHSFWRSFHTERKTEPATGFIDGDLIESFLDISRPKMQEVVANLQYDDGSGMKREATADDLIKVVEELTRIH

Compound | Kd [µM]
SRLNRRASF [Peptide 7] | 20 to 100

same assay, conditions: SPR, DDB1 binding moieties with linkers and/or target protein binding moiety; read-out: Binding (Kd)

Compound | Kd [µM]
CC(=O)Nc1cc(NCCCCCCCN)ccc1C(=O)Nc1nc(C)c([N+](=O)[O-])s1 [BL-7, 2-Acetamido-4-((7-aminoheptyl)amino)-N-(4-methyl-5-nitrothiazol-2-yl)benzamide] | 20 to 100
CC(=O)Nc1cc(NCCNC(=O)C[C@@H]2N=C(c3ccc(Cl)cc3)c3c(sc(C)c3C)-n3c(C)nnc32)ccc1C(=O)Nc1nc(C)c([N+](=O)[O-])s1 [D-26, (S)-2-Acetamido-4-((2-(2-(4-(4-chlorophenyl)-2,3,9-trimethyl-6H-thieno[3,2-f][1,2,4]triazolo[4,3-a][1,4]diazepin-6-yl)acetamido)ethyl)amino)-N-(4-methyl-5-nitrothiazol-2-yl)benzamide] | 20 to 100

same assay, conditions: SPR, steady state affinity model, 25° C.; read-out: Binding (DDB1 binder activities, Kd)

Compound | Kd [µM]
CCCCNc1ccc(C(=O)Nc2ncc([N+](=O)[O-])s2)c(OCC)c1 [B-160, 4-(Butylamino)-2-ethoxy-N-(5-nitrothiazol-2-yl)benzamide] | 20 to 100
CCCCNc1ccc(C(=O)Nc2ncc(C#N)s2)c(-c2ccccc2)c1 [B-119, 5-(Butylamino)-N-(5-cyanothiazol-2-yl)-[1,1′-biphenyl]-2-carboxamide] | 20 to 100
CNc1ccc(C(=O)Nc2ncc([N+](=O)[O-])s2)c(C)c1 [B-166, 2-Methyl-4-(methylamino)-N-(5-nitrothiazol-2-yl)benzamide] | 20 to 100
CCCNC(=O)c1cccc(OC(C)=O)c1C(=O)Nc1ncc([N+](=O)[O-])s1 [B-14, 2-((5-Nitrothiazol-2-yl)carbamoyl)-3-(propylcarbamoyl)phenyl acetate] | 20 to 100
CCOc1cccc(C)c1C(=O)Nc1ncc([N+](=O)[O-])s1 [B-159, 2-Ethoxy-6-methyl-N-(5-nitrothiazol-2-yl)benzamide] | > 100
CCNc1cccc(OCC)c1C(=O)Nc1ncc([N+](=O)[O-])s1 [B-168, 2-Ethoxy-6-(ethylamino)-N-(5-nitrothiazol-2-yl)benzamide] | > 100
COc1ccccc1C(=O)Nc1ncc([N+](=O)[O-])s1 [B-73, 2-methoxy-N-(5-nitrothiazol-2-yl)benzamide] | > 100
O=C(Nc1cccc(N2CCOC2=O)c1)c1ccccc1C1CCCN1 (stereo not drawn) [B-140, N-(3-(2-oxooxazolidin-3-yl)phenyl)-2-(pyrrolidin-2-yl)benzamide] | 20 to 100
O=C(Nc1ncc([N+](=O)[O-])s1)c1ccccc1O [B-2, 2-hydroxy-N-(5-nitrothiazol-2-yl)benzamide] | 20 to 100
O=C(Nc1ncc([N+](=O)[O-])s1)c1ccccc1C1CC1 [B-85, 2-cyclopropyl-N-(5-nitrothiazol-2-yl)benzamide] | 20 to 100
O=C1CCCCCN1c1ncc([N+](=O)[O-])s1 [B-100, 1-(5-Nitrothiazol-2-yl)azepan-2-one] | 20 to 100
CC(=O)Nc1ccccc1C(=O)Nc1ccncn1 [B-57, 2-acetamido-N-(pyrimidin-4-yl)benzamide] | 20 to 100
CCNc1ccccc1C(=O)Nc1ncc([N+](=O)[O-])s1 [B-6] | < 20
CCCCNc1ccc(C(=O)Nc2nc(-c3ccccc3)c([N+](=O)[O-])s2)c(-c2ccccc2)c1 [B-131, 5-(Butylamino)-N-(5-nitro-4-phenylthiazol-2-yl)-[1,1′-biphenyl]-2-carboxamide] | < 20
CC(=O)Nc1ccccc1C(=O)Nc1nc(C(F)(F)F)c([N+](=O)[O-])s1 [B-31, 2-Acetamido-N-(5-nitro-4-(trifluoromethyl)thiazol-2-yl)benzamide] | 20 to 100
CC(=O)Nc1ccccc1C(=O)Nc1ncc(-c2ccccc2)s1 [B-45, 2-acetamido-N-(5-phenylthiazol-2-yl)benzamide] | < 20
Cc1cc(-c2ccccc2)ccc1C(=O)Nc1ncc([N+](=O)[O-])s1 [B-153, 3-Methyl-N-(5-nitrothiazol-2-yl)-[1,1′-biphenyl]-4-carboxamide] | 20 to 100
CC(=O)Nc1ccccc1C(=O)Nc1ccc(Cl)cn1 [B-54, 2-Acetamido-N-(5-chloropyridin-2-yl)benzamide] | 20 to 100

Reference: US20240066136A1, “MODIFIED PROTEINS AND PROTEIN DEGRADERS” (Cullgen (Shanghai), Inc., priority 2020, published 2024)
